{"source": "patent US20250264460A1", "about": "“METHOD OF MEASURING LEVEL OF IMMUNE SUPPRESSION” (THE JOHNS HOPKINS UNIVERSITY, priority 2022, published 2025)", "key": {"SARS-COV-2 spike": {"tested_on": "SARS-COV-2 spike", "assay_type": "in vivo, human", "details": "SOTRs on immunosuppression, two weeks post dose three"}, "class-switched B cells": {"tested_on": "class-switched B cells", "experiment": "Flow cytometry of CD11c and CPT1a on class-switched B cells of SOTRs by MMF dose", "assay_type": "in vivo, human", "details": "SOTRs on high dose MMF or MPA (>1000 mg/per day or >721 mg/day)", "protocol": "(§1) FIGS. 4A-4J show high dose MMF inhibits mitochondrial fatty acid oxidation. FIGS. 4A-4B show normalized mean fluorescent intensity (MFI) of CD11c and CPT1a on total class-switched B cells segregated by dose of MMF; high (>1000), low (<1000), or none. […] FIGS. 4D-4E show oxygen consumption rate (OCR) following mitochondrial stress test of PBMCs plated directly post thaw from SOTRs or HCs (FIG. 4D) or healthy PBMCs treated in vitro with high or low dose MPA 48 hours prior to plating (FIG. 4E)."}, "PBMCs [1]": {"tested_on": "PBMCs", "experiment": "Oil red O staining of lipid droplets in PBMCs from SOTRs, ex vivo", "design": "species or system human", "details": "PBMCs from SOTRs on high dose MMF", "protocol": "as §1\nDue to the association with MMF dose and CPT1a expression, PBMCs from SOTRs receiving high dose, low dose, or no MMF were evaluated ex vivo for alterations in lipid metabolism. Immunosuppression dose is largely determined by estimation of graft function and the measurement of the blood levels of immunosuppressive drugs, although neither method is sensitive or specific for determining the current immunosuppressive status, particularly for MMF, where drug levels are not routinely measured. […] Mitochondrial bioenergetics were next measured directly ex vivo via the Agilent Seahorse XF Cell Mito Stress Test at basal levels and in response to mitochondrial stress, in the absence of additional stimulation or exogenous substrates. The oxygen consumption rate (OCR) was used as a measurement of mitochondrial respiration/oxidative phosphorylation (OXPHOS). […]"}, "PBMCs [2]": {"tested_on": "PBMCs", "experiment": "Seahorse XF Cell Mito Stress Test (OCR) of PBMCs from SOTRs, ex vivo", "assay_type": "in vivo, human", "protocol": "as §1\nDue to the association with MMF dose and CPT1a expression, PBMCs from SOTRs receiving high dose, low dose, or no MMF were evaluated ex vivo for alterations in lipid metabolism. Immunosuppression dose is largely determined by estimation of graft function and the measurement of the blood levels of immunosuppressive drugs, although neither method is sensitive or specific for determining the current immunosuppressive status, particularly for MMF, where drug levels are not routinely measured. […] Mitochondrial bioenergetics were next measured directly ex vivo via the Agilent Seahorse XF Cell Mito Stress Test at basal levels and in response to mitochondrial stress, in the absence of additional stimulation or exogenous substrates. The oxygen consumption rate (OCR) was used as a measurement of mitochondrial respiration/oxidative phosphorylation (OXPHOS)."}, "T cells and B cells": {"tested_on": "T cells and B cells", "experiment": "Cell Trace Violet proliferation of stimulated T cells and B cells in the presence of MPA", "assay_type": "cell-based, human", "details": "6 days"}, "healthy PBMCs [3]": {"tested_on": "healthy PBMCs", "experiment": "Seahorse OCR of healthy PBMCs treated in vitro with MPA", "assay_type": "cell-based, human", "details": "for OCR: 48 hours prior to plating; for Effect on OCR increase of low dose MPA-treated cells: etomoxir (2 μM) 1 hour prior to measurement", "protocol": "as §1\nFIGS. 8A-81 show high dose MPA induces mitochondrial unresponsiveness. […] FIGS. 8D-8G show healthy PBMCs were treated with 5 μM MPA for 24 hours in complete media then rested overnight in low-nutrient media prior to analysis. Oxygen consumption rate (OCR) of exposed to long chain fatty acid palmitate (165 μM) (FIG. 8D), medium chain fatty acid octanoic acid (200 μM) (FIG. 8E), glucose (10 mM) and pyruvate (1 mM) (FIG. 8F), or glutamine (2 mM) (FIG. 8G) 20 minutes prior to analysis. FIGS. 8H-81 show fold change in baseline (FIG. 8H) or maximal (FIG. 81) OCR when healthy PBMCs were supplied with indicated substrates.\nTo test this hypothesis, cells were exposed to low dose etomoxir, an inhibitor of CPT1a transport of FAs into mitochondria. […] To confirm that high dose MPA inhibits FAO, palmitate (a long chain FA) was added exogenously to cultures 20 minutes prior to evaluation of mitochondrial respiration."}, "healthy PBMCs [4]": {"tested_on": "healthy PBMCs", "experiment": "Oil red O staining of healthy PBMCs treated in vitro with MPA", "assay_type": "cell-based, human", "details": "high dose MPA (5 μM)", "protocol": "Genes associated lipid synthesis were increased in total B cells from SOTRs (R or NR) in SCR.NA seq (FIG. 14A). PCA plot of lipidomics performed on total B cells derived from SOTRs or HCs (FIG. 14B). […] Accumulation of lipid droplets were measured by Oil Red O in PBMCs from HC or SOTR (FIG. 14D)."}, "PBMCs [5]": {"tested_on": "PBMCs", "experiment": "Viability of PBMCs after MPA treatment", "assay_type": "cell-based, human", "details": "PBMCs 48 hours after 5 μM MPA, versus untreated"}, "B cells and T cells": {"tested_on": "B cells and T cells", "experiment": "OCR of B cells and T cells treated with MPA and etomoxir", "assay_type": "cell-based, human", "excerpt": "FIGS. 16A-16C show low dose MPA induces CPT1a-dependent FAO in B cells but not T cells."}, "[6]": {"details": "etomoxir (CPT1a inhibition), MPA-treated"}}, "note": "Entries after “also recorded” stand apart in the source; their conditions may differ. Where two headings read alike, the source gives them in different places."}
{"smiles": "COc1c(C)c2c(c(O)c1C/C=C(\\C)CCC(=O)OCCN1CCOCC1)C(=O)OC2", "note": "[MMF, mycophenolate mofetil]", "values": [{"measurement": "Association of treatment with anti-S IgG response to third vaccine dose", "setting": "SARS-COV-2 spike", "result": "specifically associated with a lack of response"}, {"measurement": "Association of treatment with anti-S IgG response to third vaccine dose", "setting": "SARS-COV-2 spike; listed as mycophenolate mofetil", "result": "all participants who failed to respond to a 3rd dose received"}, {"measurement": "CD11c expression on class switched B cells", "setting": "class-switched B cells", "result": "significantly lower"}, {"measurement": "CPT1a expression on class switched B cells", "setting": "class-switched B cells", "result": "significantly lower"}, {"measurement": "Intracellular lipid droplets (Oil Red O)", "setting": "PBMCs [1]", "result": "higher levels of Oil Red O staining; also recorded: accumulation of intracellular lipid droplets"}, {"measurement": "Oxygen consumption rate (OCR)", "setting": "PBMCs [2]; PBMCs from SOTRs on high dose MMF", "result": "reduced oxygen consumption rate; also recorded: reduced OCR compared to other SOTRs"}, {"measurement": "Basal respiration (OCR)", "setting": "PBMCs [2]; PBMCs from SOTRs on low dose MMF, no exogenous substrates", "result": "significantly higher basal respiration compared to HCs"}]}
{"smiles": "COc1c(C)c2c(c(O)c1C/C=C(\\C)CCC(=O)O)C(=O)OC2", "note": "[MPA, mycophenolic acid]", "values": [{"measurement": "CD11c expression on class switched B cells", "setting": "class-switched B cells", "result": "significantly lower"}, {"measurement": "CPT1a expression on class switched B cells", "setting": "class-switched B cells", "result": "significantly lower"}, {"measurement": "Lymphocyte proliferation", "setting": "T cells and B cells; high dose MPA (5 μM)", "result": "completely inhibit proliferation"}, {"measurement": "Lymphocyte proliferation", "setting": "T cells and B cells; low dose MPA (0.05 μM)", "result": "limit proliferation"}, {"measurement": "Response to mitochondrial stress tests", "setting": "healthy PBMCs [3]; high dose MPA", "result": "comparable manner to untreated cells"}, {"measurement": "Mitochondrial oxidation of supplemented substrates (medium-chain fatty acids, glucose, glutamine)", "setting": "healthy PBMCs [3]; high dose MPA (5 μM)", "result": "inhibits mitochondrial oxidation of various substrates; also recorded: diminished mitochondrial oxidation of various supplemented substrates"}, {"measurement": "OCR", "setting": "healthy PBMCs [3]; high dose MPA (5 μM)", "result": "reduced OCR compared to low dose"}, {"measurement": "Oxidation of exogenous palmitate (OCR)", "setting": "healthy PBMCs [3]; high dose MPA, palmitate (165 μM) 20 minutes prior", "result": "not able to oxidize exogenous long-chain fatty acid palmitate; also recorded: unable to oxidize palmitate"}, {"measurement": "OCR", "setting": "healthy PBMCs [3]; low dose MPA", "result": "directly induced increased OCR; also recorded: increased OCR compared to untreated PBMCs"}, {"measurement": "Accumulation of lipids (Oil Red O)", "setting": "healthy PBMCs [4]", "result": "increased accumulation of lipids"}, {"measurement": "Accumulation of lipids (Oil Red O)", "setting": "healthy PBMCs [4]; listed as mycophenolic acid", "result": "Accumulation of lipid droplets was seen"}, {"measurement": "Cell viability", "setting": "PBMCs [5]", "result": "equivalent cell viability"}, {"measurement": "OCR of B cells", "setting": "B cells and T cells; high dose MPA", "result": "blunted the increased OCR in B cells"}, {"measurement": "OCR of B cells versus T cells", "setting": "B cells and T cells; low dose MPA", "result": "only B cells increased their OCR"}]}
{"smiles": "CCOC(=O)[C@@]1(CCCCCCOc2ccc(Cl)cc2)CO1", "note": "[etomoxir]", "values": [{"measurement": "Effect on OCR increase of low dose MPA-treated cells", "setting": "healthy PBMCs [3]", "result": "completely reversed the increase in OCR"}, {"measurement": "Effect on OCR increase of low dose MPA-treated cells", "setting": "healthy PBMCs [3]; listed as Etomoxir", "result": "completely reversed the increase of OCR"}, {"measurement": "OCR of B cells", "setting": "B cells and T cells; [6]", "result": "reduced OCR to baseline levels in B cells"}, {"measurement": "OCR of T cells", "setting": "B cells and T cells; [6]", "result": "had no effect on T cells"}]}
